Laboratory results from patent publication US12331045B2, “Substituted phenyl oxazolone compounds” (Bristol-Myers Squibb Company, priority 2023, dated 2025).

Key:
Type in all cases: cell-based
IKZF1 Ikaros [1] = target: T1, IKZF1 Ikaros (Homo sapiens, UniProt Q13422+Q96SW2); test: Jurkat Cellular Degradation Assay; set-up: HELIOS-PE-Cy7, EOS-PE, IKAROS-PECF594, AIOLOS-AF647; endogenous in cells; settings: Jurkat cells, 72 h; for IKZF1 Ikaros max % deg. observed: flow cytometry, 100% = complete degradation
Description: (§1) Jurkat cells were plated at 80,000 cells/well in 40 μL RPMI+10% FBS in a 384-well cell culture plate prior to using acoustic dispensing technology for adding a compound of interest. Cell cultures were incubated for 72 h at 37° C., and 5% CO2. In order to facilitate analysis, cell cultures were spun down at 200 rpm for 5 min and the supernatant was discarded. After shaking the plate to dislodge the cell pellet, cells were resuspended in 50 qL of Fixation Buffer (eBioscience FoxP3 buffer set 00-5523-00) for 60 min at room temperature. After centrifuging and discarding the supernatant, cells were permeabilized with 50 μL of Permeabilization buffer (eBioscience FoxP3 buffer set 00-5523-00) for 10 min at room temperature. Following permeabilization, cells were spun down and the supernatant was replaced with 20 μL fluorescently labelled antibodies against Helios, Ikaros and Aiolos or corresponding Isotype controls in 1-Penneabilization buffer (Ikaros-Alexa488 [Biolegend, Cat #368408, 1:50], Helios-PE [CST, Cat #29360, 1:50], Aiolos-Alexa647 [Biolegend, Cat #371106 Biolegend, 1:25]) and staining reactions were incubated for 1 h at room temperature while protected from light. Subsequently, 30 μL of 1× Permeabilization buffer was added prior to centrifuging the cells and discarding the supernatant. Stained cells were resuspended in 25 μL of flow cytometry staining buffer [PBS+0.2% bovine serum albumin (BSA)] and analyzed using an Intellicyt Ique Plus flow cytometer.

IKZF3 Aiolos [2] = target: T2, IKZF3 Aiolos (Homo sapiens, UniProt Q96SW2+Q9UKT9); test: Jurkat Cellular Degradation Assay; settings: Jurkat cells, 72 h; for IKZF3 Aiolos max % deg. observed: flow cytometry, 100% = complete degradation
Description: as §1

IKZF4 Eos = target: T3, IKZF4 Eos (Homo sapiens, UniProt Q96SW2+Q9H2S9); test: Human T Regulatory Cells Reprogramming Assay; settings: sorted human Treg cells, 12-13 days; 50% reduction vs DMSO
T3 construct: endogenous in cells; host or cells: primary human CD4+CD127lowCD25+ Treg cells sorted from healthy-donor leukopaks
Description: (§2) Human CD4^+ T cells were isolated from fresh healthy leukopaks (Stemcell Technologies) using the RosetteSep Human CD4^+ T cell enrichment cocktail (Stemcell Technologies) and Ficoll density gradient centrifugation. Leukopaks were diluted with an equal volume of phosphate-buffered saline (PBS [Gibco]) supplemented with 2% fetal bovine serum (FBS, VWR Lifescience) and incubated with RosetteSep Human CD4^+ T cell enrichment cocktail for 20 minutes before layering on Ficoll-Paque Plus solution (GE Health Care). The cell-rich interface layer was harvested and washed twice with PBS supplemented with 2% FBS. Regulatory T cells were then isolated manually using the EasySep Human CD4^+CD127^lowCD25^+ Regulatory T cell isolation kit (Stemcell Technologies) according to the manufacturer's instructions. Cells were rested overnight in Roswell Park Memorial Institute (RPMI) 1640 media (Gibco) supplemented with 10% FBS, Pen/Strep (Gibco), MEM-NEAA (Gibco), and sodium pyruvate (Gibco) in a humidified incubator (37° C., 5% CO2). […]
(§3) For flow cytometry staining, cells were washed twice with flow cytometry staining buffer (Thermo Fisher) and incubated in Human Tru-stain Fc block (Biolegend) for 10 minutes before adding eFluor780 viability dye (Thermo Fisher) and surface marker antibody cocktail for 30 minutes at 4° C. […] Data were analyzed using FlowJo version 10 and GraphPad Prism Software.

IKZF3 Aiolos [3] = target: T2, IKZF3 Aiolos; test: Human CD8+ T Cell Reprogramming Assay (method headed Human CD8+ T Cell Degradation Assay); set-up: HELIOS-PE-Cy7, EOS-PE, IKAROS-PECF594, AIOLOS-AF647; endogenous in cells; host or cells: healthy-donor human PBMC; CD8+ T cells analysed by flow cytometry; settings: CD8+ T cells in human PBMC, 24 hours; for IKZF3 Aiolos Maximum Observed Degradation: flow cytometry; for DC50: 50% reduction vs DMSO
Description: (§4) Cryopreserved healthy donor human peripheral blood mononuclear cells (PBMC; obtained from Stemcell Technologies or Blood Works Northwest) from two healthy donors were thawed and seeded at 500,000 cells/well of 96-well round bottom plates in RPMI 1640 media (Gibco) supplemented with 10% FBS, Pen/Strep (Gibco), MEM-NEAA (Gibco), and sodium pyruvate (Gibco). Cells were treated with titrated doses of compound for 24 hours at 37° C., 5% CO2 before analyzing by flow cytometry.
(§5) For flow cytometry staining, cells were washed twice with flow cytometry staining buffer (Thermo Fisher) and incubated in Human Tru-stain Fc block (Biolegend) for 10 minutes before adding eFluor780 viability dye (Thermo Fisher) and surface marker antibody cocktail containing LD-eFluor780, CD3-BUV-395, CD4-BUV805, CD8-FITC, CD25-BV605, FoxP3-BV421, HELIOS-PE-Cy7, EOS-PE, IKAROS-PECF594, AIOLOS-AF647 for 30 minutes at 4° C. Cells were then fixed and permeabilized by incubation with permeabilization buffer (eBioscience FoxP3 buffer set 00-5523-00) for 30 minutes at 4° C., as per the kit manufacturer's instructions. Cells were washed twice with the Perm/Wash buffer suppled in the kit as per the manufacturer's instructions and incubated overnight at 4° C. with an intracellular antibody cocktail comprised of antibodies specific for the transcription factors shown in Table C. Cells were washed twice with Perm/Wash buffer and resuspended in flow cytometry staining buffer (Thermo Fisher) prior to acquisition. Sample acquisition and analysis was performed using a BD LSRFortessa (BD Biosciences) flow cytometer. Single stain controls for each fluorochrome were prepared using UltraComp eBead Compensation Beads (Thermo Fisher). Data were analyzed using FlowJo version 10 and GraphPad Prism Software.

IKZF1 Ikaros [4] = target: T1, IKZF1 Ikaros; test: as above; set-up: HELIOS-PE-Cy7, EOS-PE, IKAROS-PECF594, AIOLOS-AF647; endogenous in cells; host or cells: healthy-donor human PBMC; CD8+ T cells analysed by flow cytometry; settings: CD8+ T cells in human PBMC, 24 hours; for IKZF1 Ikaros Maximum Observed Degradation: flow cytometry; for DC50: 50% reduction vs DMSO
Description: as §4, §5

IKZF1 Ikaros [5] = target: T1, IKZF1 Ikaros; test: Human T Regulatory Cells Degradation Assay; set-up: HELIOS-PE-Cy7, EOS-PE, IKAROS-PECF594, AIOLOS-AF647; endogenous in cells; settings: 20 hours
IKZF2 Helios [6] = target: T4, IKZF2 Helios (Homo sapiens, UniProt Q96SW2+Q9UKS7); test: Human T Regulatory Cells Reprogramming Assay; set-up: endogenous in cells; host or cells: primary human CD4+CD127lowCD25+ Treg cells sorted from healthy-donor leukopaks; settings: sorted human Treg cells, 12-13 days; 50% reduction vs DMSO
Description: as §2, §3

IKZF2 Helios [7] = target: T4, IKZF2 Helios; test: Jurkat Cellular Degradation Assay; set-up: endogenous in cells; settings: Jurkat cells, 72 h; concentration reducing protein by 50% vs DMSO
Description: as §1, with “Subsequently, 30 μL of 1× Permeabilization buffer was added prior to centrifuging the cells and discarding the supernatant.” left out

IKZF2 Helios [8] = target: T4, IKZF2 Helios; test: Human T Regulatory Cells Degradation Assay; set-up: endogenous in cells; host or cells: primary human CD4+CD127lowCD25+ Treg cells sorted from healthy-donor leukopaks; settings: 20 hours
Description: Cryopreserved human T regulatory cells were thawed in RPMI+10% FBS+20 ng/mL IL-2. After being spun at 1200 rpm for 5 mins, the cells were resuspended in RPMI+10% FBS+20 ng/mL and rested at 37° C. with 5% CO2 for 3 hours. The cells were then plated at 40,000 cells/well in 40 μL RPMI+10% FBS+20 ng/mL human IL-2 in a 384 well cell culture plate prior to using acoustic dispensing technology (ECHO 555) for adding compounds of interest. Cell cultures were incubated for 20 hours at 37° C., and 5% CO2. In order to facilitate analysis, cell cultures were spun down at 1200 rpm for 5 minutes and the supernatant was discarded using an EL406 plate washer. After washing three times with 70 μL PBS, cell pellets were resuspended in 50 μL of near IR viability staining solution (Life Technologies, Cat #L34975) and incubated for 30 minutes on ice protected from light. Cells were washed three times with […] PBS+0.5% BSA using an EL406 plate washer. After shaking the plate to dislodge the cell pellet, cells were resuspended in 50 μL of Fixation Buffer (eBioScience FoxP3 buffer set 00-5523-00) for 60 minutes at room temperature. […] Stained cells were resuspended in 30 μL of flow cytometry staining buffer (PBS+0.5% BSA) and analyzed using an Intellicyt Ique Plus flow cytometer.

[9] = concentration reducing protein by 50% vs DMSO

T1 sequence (Q13422 whole entry): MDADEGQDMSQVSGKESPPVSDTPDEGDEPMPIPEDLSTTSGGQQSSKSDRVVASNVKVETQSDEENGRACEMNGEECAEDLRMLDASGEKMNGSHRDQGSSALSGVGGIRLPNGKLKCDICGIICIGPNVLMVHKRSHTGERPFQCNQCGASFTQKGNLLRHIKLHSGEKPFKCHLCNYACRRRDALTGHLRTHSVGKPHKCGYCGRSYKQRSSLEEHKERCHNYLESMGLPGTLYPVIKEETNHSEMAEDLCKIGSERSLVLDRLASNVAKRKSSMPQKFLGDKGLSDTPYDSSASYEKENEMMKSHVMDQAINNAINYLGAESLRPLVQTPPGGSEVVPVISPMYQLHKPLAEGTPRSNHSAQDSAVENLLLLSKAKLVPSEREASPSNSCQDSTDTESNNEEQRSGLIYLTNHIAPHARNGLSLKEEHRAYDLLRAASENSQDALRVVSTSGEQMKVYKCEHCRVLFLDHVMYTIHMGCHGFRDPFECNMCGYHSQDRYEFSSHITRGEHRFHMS
T1 sequence (Q96SW2 whole entry): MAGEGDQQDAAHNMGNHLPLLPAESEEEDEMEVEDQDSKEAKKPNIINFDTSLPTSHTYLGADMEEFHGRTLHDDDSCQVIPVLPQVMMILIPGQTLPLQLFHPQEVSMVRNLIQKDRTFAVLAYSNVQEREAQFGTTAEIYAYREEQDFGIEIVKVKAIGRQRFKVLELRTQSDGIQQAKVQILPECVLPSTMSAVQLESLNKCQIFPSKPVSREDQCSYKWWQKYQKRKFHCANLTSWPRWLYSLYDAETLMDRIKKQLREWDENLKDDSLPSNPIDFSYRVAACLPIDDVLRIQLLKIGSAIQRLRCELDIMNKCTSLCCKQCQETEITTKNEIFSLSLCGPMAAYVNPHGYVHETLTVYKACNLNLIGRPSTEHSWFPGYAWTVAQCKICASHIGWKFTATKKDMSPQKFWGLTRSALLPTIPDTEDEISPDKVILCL
T1 sequence (Q16531 whole entry partner): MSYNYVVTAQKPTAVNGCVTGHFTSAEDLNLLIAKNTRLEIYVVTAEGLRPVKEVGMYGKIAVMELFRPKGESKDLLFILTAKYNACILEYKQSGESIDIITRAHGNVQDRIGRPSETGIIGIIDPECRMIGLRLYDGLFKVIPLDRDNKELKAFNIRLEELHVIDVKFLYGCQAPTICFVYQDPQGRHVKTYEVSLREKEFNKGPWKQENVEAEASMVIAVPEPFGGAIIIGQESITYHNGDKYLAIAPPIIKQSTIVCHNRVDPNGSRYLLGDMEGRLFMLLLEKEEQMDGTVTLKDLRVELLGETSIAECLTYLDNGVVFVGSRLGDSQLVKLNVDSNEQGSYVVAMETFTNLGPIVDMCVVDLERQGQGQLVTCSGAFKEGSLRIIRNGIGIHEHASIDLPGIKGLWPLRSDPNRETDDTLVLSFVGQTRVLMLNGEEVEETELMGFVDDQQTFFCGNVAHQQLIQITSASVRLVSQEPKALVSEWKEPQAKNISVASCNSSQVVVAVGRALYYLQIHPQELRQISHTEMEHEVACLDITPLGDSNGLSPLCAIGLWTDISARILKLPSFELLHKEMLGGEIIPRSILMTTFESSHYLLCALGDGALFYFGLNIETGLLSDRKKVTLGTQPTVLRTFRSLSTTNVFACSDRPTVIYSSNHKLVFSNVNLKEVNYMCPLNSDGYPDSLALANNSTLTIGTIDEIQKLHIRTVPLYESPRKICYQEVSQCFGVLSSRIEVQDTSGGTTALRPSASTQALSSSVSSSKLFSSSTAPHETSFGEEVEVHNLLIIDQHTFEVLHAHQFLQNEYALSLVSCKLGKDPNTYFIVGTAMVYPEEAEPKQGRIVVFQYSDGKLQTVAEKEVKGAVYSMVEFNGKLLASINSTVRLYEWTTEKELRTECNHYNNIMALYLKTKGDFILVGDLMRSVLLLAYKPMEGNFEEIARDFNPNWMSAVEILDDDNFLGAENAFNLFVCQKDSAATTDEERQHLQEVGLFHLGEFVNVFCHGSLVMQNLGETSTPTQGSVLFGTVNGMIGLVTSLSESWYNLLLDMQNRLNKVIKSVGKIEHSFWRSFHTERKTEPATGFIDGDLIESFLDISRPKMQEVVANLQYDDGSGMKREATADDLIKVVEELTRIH
T4 sequence (Q9UKS7 whole entry): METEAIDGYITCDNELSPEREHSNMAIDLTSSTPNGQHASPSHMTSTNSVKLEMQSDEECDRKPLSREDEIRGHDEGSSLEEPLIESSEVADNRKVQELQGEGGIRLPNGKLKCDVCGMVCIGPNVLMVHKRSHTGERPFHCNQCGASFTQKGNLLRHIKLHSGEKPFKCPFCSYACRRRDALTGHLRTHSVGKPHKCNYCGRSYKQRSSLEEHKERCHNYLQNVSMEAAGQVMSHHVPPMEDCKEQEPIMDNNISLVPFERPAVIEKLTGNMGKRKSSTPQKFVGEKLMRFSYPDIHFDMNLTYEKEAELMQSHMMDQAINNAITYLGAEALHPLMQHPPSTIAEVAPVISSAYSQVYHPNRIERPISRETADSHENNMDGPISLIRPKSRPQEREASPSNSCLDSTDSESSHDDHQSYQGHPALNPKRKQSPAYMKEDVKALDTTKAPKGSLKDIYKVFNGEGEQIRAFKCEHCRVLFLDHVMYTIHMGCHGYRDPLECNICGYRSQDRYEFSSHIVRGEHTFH
T4 sequence (Q96SW2 whole entry): as the sequence (Q96SW2 whole entry) above
T4 sequence (Q16531 whole entry partner): as the sequence (Q16531 whole entry partner) above
T2 sequence (Q9UKT9 whole entry): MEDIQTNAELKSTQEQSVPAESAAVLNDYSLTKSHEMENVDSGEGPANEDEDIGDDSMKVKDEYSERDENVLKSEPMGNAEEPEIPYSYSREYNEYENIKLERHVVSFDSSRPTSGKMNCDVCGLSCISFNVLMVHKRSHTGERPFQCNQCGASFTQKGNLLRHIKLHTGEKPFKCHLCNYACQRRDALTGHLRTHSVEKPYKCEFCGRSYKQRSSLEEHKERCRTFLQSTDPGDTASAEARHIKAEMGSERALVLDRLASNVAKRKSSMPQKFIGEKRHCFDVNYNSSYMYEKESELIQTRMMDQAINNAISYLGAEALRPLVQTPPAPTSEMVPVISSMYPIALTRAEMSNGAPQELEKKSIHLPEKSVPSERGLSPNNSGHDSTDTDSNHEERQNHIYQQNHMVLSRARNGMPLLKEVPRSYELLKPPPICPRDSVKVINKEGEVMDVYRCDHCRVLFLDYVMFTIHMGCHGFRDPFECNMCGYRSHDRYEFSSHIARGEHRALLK
T2 sequence (Q96SW2 whole entry): as the sequence (Q96SW2 whole entry) above
T2 sequence (Q16531 whole entry partner): as the sequence (Q16531 whole entry partner) above
T3 sequence (Q9H2S9 whole entry): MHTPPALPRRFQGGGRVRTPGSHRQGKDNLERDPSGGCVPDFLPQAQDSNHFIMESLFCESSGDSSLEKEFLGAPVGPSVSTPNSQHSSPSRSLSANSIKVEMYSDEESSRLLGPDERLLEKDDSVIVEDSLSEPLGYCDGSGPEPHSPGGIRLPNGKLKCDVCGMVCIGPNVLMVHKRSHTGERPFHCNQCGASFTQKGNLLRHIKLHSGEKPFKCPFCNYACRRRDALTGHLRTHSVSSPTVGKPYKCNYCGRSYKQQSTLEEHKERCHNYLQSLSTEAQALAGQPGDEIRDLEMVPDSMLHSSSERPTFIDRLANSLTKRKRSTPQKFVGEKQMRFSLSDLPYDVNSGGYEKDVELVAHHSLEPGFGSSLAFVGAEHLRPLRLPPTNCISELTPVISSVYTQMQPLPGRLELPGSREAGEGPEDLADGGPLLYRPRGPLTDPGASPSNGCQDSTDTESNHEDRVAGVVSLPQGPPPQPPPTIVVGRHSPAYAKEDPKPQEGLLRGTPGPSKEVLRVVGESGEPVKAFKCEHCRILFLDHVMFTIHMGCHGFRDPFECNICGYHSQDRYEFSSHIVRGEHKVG
T3 sequence (Q96SW2 whole entry): as the sequence (Q96SW2 whole entry) above
T3 sequence (Q16531 whole entry partner): as the sequence (Q16531 whole entry partner) above

| IKZF1 Ikaros max % deg. observed (IKZF1 Ikaros [1]) [%] | IKZF3 Aiolos max % deg. observed (IKZF3 Aiolos [2]) [%] | DC50 (IKZF4 Eos) [nM] | IKZF3 Aiolos Maximum Observed Degradation (IKZF3 Aiolos [3]) [%] | DC50 (IKZF3 Aiolos [3]) [nM] | IKZF1 Ikaros Maximum Observed Degradation (IKZF1 Ikaros [4]) [%] | DC50 (IKZF1 Ikaros [4]) [nM] | DC50 (IKZF1 Ikaros [5]; 50% reduction vs DMSO) [nM] | IKZF1 Ikaros max % deg. observed (IKZF1 Ikaros [5]; flow cytometry) [%] | DC50 (IKZF1 Ikaros [1]; [9]) [nM] | DC50 (IKZF2 Helios [6]) [nM] | DC50 (IKZF2 Helios [7]) [nM] | DC50 (IKZF3 Aiolos [2]; [9]) [nM] | DC50 (IKZF2 Helios [8]; 50% reduction vs DMSO) [nM] | IKZF2 Helios max % deg. observed (IKZF2 Helios [8]; flow cytometry) [%] | Compound |
| --- | --- | --- | --- | --- | --- | --- | --- | --- | --- | --- | --- | --- | --- | --- | --- |
| 57 | 46 |  |  |  |  |  |  |  |  |  |  |  |  |  | O=C1CCC(n2cc(-c3ccccc3)oc2=O)C(=O)N1 (stereo not drawn) [Comparative Compound A, 3-(2-oxo-5-phenyloxazol-3(2H)-yl)piperidine-2,6-dione, reference compound] |
|  | 15 |  |  |  |  |  |  |  |  |  |  |  |  |  | O=C1CCC(n2cc(-c3ccc(Br)cc3F)oc2=O)C(=O)N1 (stereo not drawn) [Comparative Compound B, 3-(5-(4-bromo-2-fluorophenyl)-2-oxooxazol-3(2H)-yl)piperidine-2,6-dione, reference compound] |
| 66 | 54 | 1.5 | 77 | 19 | 74 | 102 | 5470 | 55 | 1080 | 85 | 13.6 | 4920 | 5.2 | 99 | Cc1cc(-c2ccc(-c3cn(C4CCC(=O)NC4=O)c(=O)o3)c(F)c2)nc(N)c1C (stereo not drawn) [Example 1, 3-(5-(4-(6-Amino-4,5-dimethylpyridin-2-yl)-2-fluorophenyl)-2-oxooxazol-3(2H)-yl) piperidine-2,6-dione] |
|  |  | 0.63 | 71 | 26 | 66 | 139 |  |  |  | 42 |  |  |  |  | [2H]C1([2H])C(=O)NC(=O)C([2H])(n2cc(-c3ccc(-c4cc(C)c(C)c(N)n4)cc3F)oc2=O)C1([2H])[2H] (stereo not drawn) [Example 2, 3-(5-(4-(6-amino-4,5-dimethylpyridin-2-yl)-2-fluorophenyl)-2-oxooxazol-3(2H)-yl) piperidine-2,6-dione-3,4,4,5,5-D5] |
